Results as given in patent publication US20090186111A1, “Novel Bacteria and Pharmaceutically Active Products Obtained Therefrom” (priority 2004, published 2009).

These molecules were tested on S. aureus LSLT1111 (assay: Antibiogram of S. aureus LSLT1111).

Molecule	Diameter of clear area	Sensitivity to antibiotic
CC1(C)S[C@@H]2[C@H](NC(=O)[C@H](N)c3ccccc3)C(=O)N2[C@H]1C(=O)O [Ampicillin]	12.6 mm	Resistant
CC(=O)OCC1=C(C(=O)O)N2C(=O)[C@@H](NC(=O)Cc3cccs3)[C@H]2SC1 [Cephalothin]	28.8 mm	Sensitive
O=C(N[C@H](CO)[C@H](O)c1ccc([N+](=O)[O-])cc1)C(Cl)Cl [Chloramphenicol]	18.6 mm	Sensitive
CC[C@H]1OC(=O)[C@H](C)[C@@H](O[C@H]2C[C@@](C)(OC)[C@@H](O)[C@H](C)O2)[C@H](C)[C@@H](O[C@@H]2O[C@H](C)C[C@H](N(C)C)[C@H]2O)[C@](C)(O)C[C@@H](C)C(=O)[C@H](C)[C@@H](O)[C@]1(C)O [Erythromycin]	17.3 mm	Resistant/Sensitive
CCC[C@@H]1C[C@@H](C(=O)N[C@@H]([C@H]2O[C@H](SC)[C@H](O)[C@@H](O)[C@H]2O)[C@@H](C)O)N(C)C1 [Lincomycin]	16.7 mm	Resistant/Sensitive
COc1cccc(OC)c1C(=O)N[C@@H]1C(=O)N2[C@@H]1SC(C)(C)[C@@H]2C(=O)O [Meticillin]	23.3 mm	Sensitive
CN(C)[C@@H]1C(=O)C(C(N)=O)=C(O)[C@@]2(O)C(=O)C3=C(O)c4c(O)cccc4[C@@](C)(O)[C@H]3C[C@@H]12 [Tetracyclin]	19.8 mm	Sensitive
CN[C@H](CC(C)C)C(=O)N[C@H]1C(=O)N[C@@H](CC(N)=O)C(=O)N[C@H]2C(=O)N[C@H]3C(=O)N[C@H](C(=O)N[C@H](C(=O)O)c4cc(O)cc(O)c4-c4cc3ccc4O)[C@H](O)c3ccc(c(Cl)c3)Oc3cc2cc(c3O[C@@H]2O[C@H](CO)[C@@H](O)[C@H](O)[C@H]2O[C@H]2C[C@](C)(N)[C@H](O)[C@H](C)O2)Oc2ccc(cc2Cl)[C@H]1O [Vancomycin]	11.9 mm	Sensitive
Amox. Clav. ac	28.0 mm	Sensitive
Gentamicin	16.6 mm	Sensitive
Neomycin	14.7 mm	Resistant/Sensitive
Penicillin	9.0 mm	Resistant
Sulpha/trimethoprim	18.8 mm	Sensitive
